Test [1] has as its system hvKp strain 17ZR101. Description: Mouse sepsis model, ~10^4 CFU 17ZR101, drug at 3 hpi: survival, body weight, spleen weight. Type of test: in vivo, C57BL6 mice. The method, then: All animal experiments were approved by the Animal Ethics Committee of the City University of Hong Kong and followed the guidelines of the Institutional Laboratory Animal Research Unit. Six- to eight-weeks-old animals of both sexes were used in this study. For the sepsis model, mice were intravenously injected with ˜10^4 colony forming units (CFU) of the test stain resuspended in 200 μL PBS. For the pneumonia model, mice were anesthetized by inhaling isoflurane, and ˜10^6 CFU of the strain resuspended 10 μL PBS were dripped into the mouse's nasal cavity. The heads of the mice were hold upright for 30 s afterwards.
(§1) In ASA, NPXS, CTX, AzA, CsA, DXMS, and F-ara treatment experiment, mice challenged by 17ZR101 were given intraperitoneally 100 mg kg^−1 ASA, 50 mg kg^−1 NPXS, 150 mg kg^−1 CTX, 200 mg kg^−1 AzA, 20 mg kg^−1 CsA, 10 mg kg^−1 DXMS and 40 mg kg^−1 F-ara at 3 hpi, another group treated with an equal volume of PBS or 200 μL of corn oil solution was included as a control group. In ASA and CAZ/AVI combination treatment experiment, mice were given intraperitoneally 100 mg kg^−1 ASA plus 8 mg kg^−1 CAZ and 4 mg kg^−1 AVI or 8 mg kg^−1 CAZ and 4 mg kg^−1 AVI at 1 hpi. The health status and weight of all mice were observed and recorded.

For test [2], the system named is Stat1 and STAT1-regulated chemokines, M1 markers, Cox-1, Cox-2. Description: RNA-Seq / qPCR of lung cells of 17ZR101-infected mice. The class given is in vivo, C57BL6 mice. The method, then:
RNA was extracted from lung samples by homogenization in TRIzol reagent (15596026, Thermo Fisher Scientific), followed by chloroform extraction and isopropanol precipitation. The extracted RNA was reverse-transcribed into cDNA by using a SuperScript® III First-Strand Synthesis SuperMix kit (11752050, ThermoFisher Scientific). Real-time quantitative PCR was performed by using a QuantStudio™ 7 Pro Real-Time PCR System, following the manufacturer's instructions. cDNA samples were tested in duplicates, and the relative amount of mRNA in different samples (Gapdh, Il1b, Ifng, Cxcl2, Cxcl10, Ifna, Ifnb, Ifnar1, Stat1, Hmgb1, Il-6, Myd88, and Tlr4) was determined by the comparative threshold cycle (ΔΔCT) method, using the glyceraldehyde-3-phosphate dehydrogenase gene (Gapdh) for normalization.
Total RNA was extracted from lung samples by homogenization in TRIzol reagent, followed by chloroform extraction and isopropanol precipitation. DNA was removed by DNase treatment (TURBO DNA-Free™ Kit). RNA samples were sent to Novogene (HK) Company Limited for sequencing. Routine procedures of mRNA purification and library generation were performed by Novogene. Sequencing reads alignment was performed by using HISAT2. Count aligned reads and quantification were calculated based on exon regions using FeatureCounts. […] Gene Set Enrichment Analysis was performed for gene ontology enrichment analysis. The raw RNA-seq data has been deposited in NCBI database under the accession number PRJNA851242.
as §1

In another test the test system is IL-6. Description: Serum IL-6 by ELISA in 17ZR101-infected mice. The class given is in vivo, C57BL6 mice. The conditions noted are these: 17ZR101-infected mice treated with ASA; untreated 587.965. The method, then: (§2) The serum level of IL-6 of the test animals was measured by using the IL-6 Mouse Uncoated ELISA Kit (Thermo fisher scientific, 88-7064-88), IL-1β level by IL-1 beta Mouse Uncoated ELISA Kit (Thermo fisher scientific, 88-7013-86) and that of IFN-γ was measured by using the IFN gamma Mouse Uncoated ELISA Kit (Thermo fisher scientific, 88-7314-88) according to instructions of the manufacturer.
as §1
A general note: An ELISA detects its analyte on a solid surface through an enzyme-linked reagent.

In test [3] the test system is F4/80+ cells (IMs), neutrophils in lungs. Description: Flow cytometry of lung cells, 10^4 CFU 17ZR101 sepsis model. Type of test: in vivo, C57BL6 mice. The conditions noted are these: ASA at 3 hpi. The method, then:
(§3) Cells collected from different tissues of the test animals were subjected to flow cytometry analysis as described previously^4. Cells from spleens were obtained by mashing the organ through a 70-μm cell strainer and collected in a tube containing RPMI 1640 medium supplemented with 5% fetal bovine serum. To prepare lung cells, lung tissues were excised and incubated in HBSS containing 1×HEPES and Collagenase type I. The tissue fragments were forced through a 70-μm strainer as described above. Red blood cells were lysed with ACK lysing buffer.
Dead cells were excluded from the analysis by propidium iodide (Sigma-Aldrich Corporation, P4170-1G) or ghost Dye™ violet 510 (Tonbo Biosciences, 13-0870-T100) staining in all flow cytometry experiments. Fluorescently labeled mAbs against mouse CD45, CD11b, CD206, CD80, Ly6G, CD11c, SiglecF, Ly6C and appropriate isotype controls were obtained from Biolegend. For intracellular cytokine measurement, cells were incubated with Cell Activation Cocktail (BioLegend, 423303) at 37° C. in the dark for 4 h. Anti-IFN-γ-PE antibody (eBioscience, 12-7177-81) was used to determine intracellular expression of IFN-γ. For p-STAT1 measurement, the cells were fixed with IC fixation buffer (eBioscience, 00-8222-49) for 30 min and then suspended in 1 mL of methanol to permeabilize the cell membrane, left to stand for 10 min on ice. At the time of p-STAT1 measurement, the cell suspensions were washed with FACS buffer and then stained with PE-anti-STAT1 Phospho antibody (Biolegend, 686404). […] The acquired data were analyzed by the FlowJo software (Version 10.0.7, Treestar, Palo Alto, CA).
(§4) In ASA, NPXS, CTX, AzA, CsA, DXMS, and F-ara treatment experiment, mice challenged by 17ZR101 were given intraperitoneally 100 mg kg^−1 ASA, 50 mg kg^−1 NPXS, 150 mg kg^−1 CTX, 200 mg kg^−1 AzA, 20 mg kg^−1 CsA, 10 mg kg^−1 DXMS and 40 mg kg^−1 F-ara at 3 hpi, another group treated with an equal volume of PBS or 200 μL of corn oil solution was included as a control group. […] The health status and weight of all mice were observed and recorded.
For orientation: Flow cytometry measures light scatter and fluorescence of single cells or particles in a stream.

For test [4], the system named is F4/80+ cells and Ly6G+ cells in lungs. Description: Flow cytometry of lung cells at 4 hpi, 10^7 CFU hvKp. The class given is in vivo, C57BL6 mice. The method, then: as §3
Dead cells were excluded from the analysis by propidium iodide (Sigma-Aldrich Corporation, P4170-1G) or ghost Dye™ violet 510 (Tonbo Biosciences, 13-0870-T100) staining in all flow cytometry experiments. […] The acquired data were analyzed by the FlowJo software (Version 10.0.7, Treestar, Palo Alto, CA).
as §4

Test [5] deals with hvKp strain 17ZR101. Description: Bacteria burden in organs, 10^7 CFU hvKp. The class given is in vivo, C57BL6 mice. Conditions: 4 hpi. The method, then: Ten-fold dilutions of tissue homogenate were prepared and spread onto MacConkey agar plates containing 2 μg mL^−1 cefotaxime to determine the bacterial load in different organs of the infected animals. To determine the number of intracellular bacteria, cells prepared for flow cytometry from lungs and spleens were collected and then incubated with 300 μg mL^−1 amikacin to kill the extracellular bacteria. The number of total and intracellular bacteria was counted and presented as the number of CFU g^−1 tissue.
as §1

For the next test, the system named is IFN-γ. The test is described as follows: Serum IFN-γ by ELISA in 17ZR101-infected mice. The class given is in vivo, C57BL6 mice. Conditions: 17ZR101-infected mice treated with F-ara; untreated 2742.872. The method, then:
as §2, §1

The test system of test [6] is K. pneumoniae strain HKU1 (clinical cKp strain). The test is described as follows: Antibiotic susceptibility test (microdilution), strain HKU1. The class given is cell-based, Klebsiella pneumoniae. The conditions noted are these: CLSI. The method, then: (§5) The antimicrobial susceptibility of the two Klebsiella strains was determined by the microdilution method according to the guidelines recommended by the Clinical and Laboratory Standards Institute^2. Escherichia coli strain ATCC 25922 was included as a quality control strain. All tests were performed in duplicate, and each test included three biological replicates.

The test system of test [7] is K. pneumoniae strain 17ZR101 (K2 hvKp clinical strain). The test is described as follows: Antibiotic susceptibility test (microdilution), strain 17ZR101. Type of test: cell-based, Klebsiella pneumoniae. The conditions noted are these: CLSI. The method, then:
as §5
In general terms: Broth dilution looks for growth in wells or tubes with falling amounts of substance.

The mark [8] stands for this setting: RNA-Seq lung cells, 17ZR101+ASA vs 17ZR101, unit not given.

Regarding `CC(=O)Oc1ccccc1C(=O)O` [ASA, acetylsalicylic acid], in the test on hvKp strain 17ZR101 [1] (12 hpi, ASA 100 mg kg^−1 i.p. at 3 hpi, untreated 0.863%), the spleen/body weight ratio was 0.495%. Besides, the bodyweight loss in the test with hvKp strain 17ZR101 [1] (12 hpi, ASA 100 mg kg^−1 i.p. at 3 hpi, untreated 7.206%) is 2.076%. In addition, the “mice protected (survival)” value in the test on hvKp strain 17ZR101 [1] (17ZR101 infection, 100 mg kg^−1 ASA i.p. at 3 hpi, at 48 hpi) is reported as 100%. For the same compound, the “expression level of M1 macrophage markers” value in [2] (RNA-Seq and qPCR, lung cells, ASA) is on record as “decrease in expression level of M1 macrophage markers”. Also, in test [2] (setting [8]), the Cxcl9 expression change is listed as −2.118, the Cxcl10 expression change is listed as −3.590 and the Cxcl11 expression change is listed as −2.098. In addition, the Stat1 expression change in test [2] (RNA-Seq lung cells, 17ZR101+ASA vs 17ZR101, unit not printed here (Log 2 fold change)) is recorded as −1.056. The “Cox-1 and Cox-2 expression at the mRNA level” value in [2] (upon ASA administration) is reported as “no significant difference”. The “serum IL-6 production” value in the test with IL-6 was determined as 57.964 pg/mL. Besides, in [3], the “F4/80+ cells infiltration into the lungs” value was “suppressed F4/80^+ cells infiltration into the lungs” and the “levels of neutrophils in the lungs” value is reported as “slight decrease”. The M1 macrophage polarization entry in [3] (CD80 MFI) is reported as “able to inhibit M1 macrophage polarization”. Moreover, in [4], the “F4/80+ cells infiltration in lungs” value is listed as “could suppress F4/80^+ cells infiltration” and the “Ly6G+ cells in lungs” value was “not significantly”. Besides, the “bacteria burden in various organs” value with hvKp strain 17ZR101 [5] is recorded as “without contributing to bacteria clearance”.
Take `Nc1nc(F)nc2c1ncn2[C@@H]1O[C@H](CO)[C@@H](O)[C@@H]1O` [F-ara, Fludarabine]: in the test on hvKp strain 17ZR101 [1] (17ZR101 infection, 40 mg kg^−1 F-ara i.p. at 3 hpi, within 48 h), the “mice protected from death” value came out at 50%. The “serum IFN-γ level” value in the test on IFN-γ came out at 445.133 pg/mL.
As to `NCC[C@H](O)C(=O)N[C@@H]1C[C@H](N)[C@@H](O[C@H]2O[C@H](CN)[C@@H](O)[C@H](O)[C@H]2O)[C@H](O)[C@H]1O[C@H]1O[C@H](CO)[C@@H](O)[C@H](N)[C@H]1O` [amikacin], the antimicrobial susceptibility entry in test [6] and in test [7] was “susceptible” in each case.
Regarding `CO/N=C(\C(=O)N[C@@H]1C(=O)N2C(C(=O)O)=C(COC(C)=O)CS[C@H]12)c1csc(N)n1` [cefotaxime], the antimicrobial susceptibility entry in [6] and in test [7] was “resistant” each time.
As to `CC(C)(O/N=C(\C(=O)N[C@@H]1C(=O)N2C(C(=O)[O-])=C(C[n+]3ccccc3)CS[C@H]12)c1csc(N)n1)C(=O)O` [ceftazidime], the antimicrobial susceptibility result in [6] and in test [7] was “resistant” each time.
With `O=P1(N(CCCl)CCCl)NCCCO1` (stereo not shown) [cyclophosphamide], in the test on hvKp strain 17ZR101 [1] (17ZR101 infection, 150 mg kg^−1 CTX i.p. at 3 hpi), the “protective effect (survival)” value is reported as “did not exhibit any protective effect”.
For the compound `C[C@@H](O)[C@H]1C(=O)N2C(C(=O)O)=C(S[C@@H]3CN[C@H](C(=O)N(C)C)C3)[C@H](C)[C@H]12` [meropenem], the antimicrobial susceptibility result in test [6] and in test [7] was “resistant” each time.
For `CN(C)c1cc(NC(=O)CNC(C)(C)C)c(O)c2c1C[C@H]1C[C@H]3[C@H](N(C)C)C(O)=C(C(N)=O)C(=O)[C@@]3(O)C(O)=C1C2=O` [tigecycline], the antimicrobial susceptibility entry in test [6] and in [7] was “susceptible” each time.
Consider polymyxin B, for which the antimicrobial susceptibility result in [6] and in test [7] was “susceptible” throughout.

For the origin of these results see patent publication US12622919B2, “Methods for treating hypervirulent Klebsiella pneumoniae infection” (priority 2023, dated 2026).
